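Briefly, cells in 96-well plates were exposed to five compound concentrations for 48 h, and endpoints were estimated by linear interpolation. GI50: concentration for 50% inhibition of growth.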 Calls of active or inactive are those of the source. Rule as the data show it: active = GI50 up to about 1.1 µM and inactive = higher.
What was measured:
Experiment in all cases: inhibition of tumour cell growth, NCI panel, 48 h
MOLT-4 = system: MOLT-4
SF-295 = system: SF-295
SK-MEL-5 = system: SK-MEL-5
RXF 393 = system: RXF 393
T47D = system: T47D
SK-MEL-28 = system: SK-MEL-28
OVCAR-5 = system: OVCAR-5
SK-OV-3 = system: SK-OV-3
K562 = system: K562
SNB-75 = system: SNB-75
MCF7 = system: MCF7
A549 = system: A549
NCI-H23 = system: NCI-H23
UO-31 = system: UO-31
RPMI-8226 = system: RPMI-8226
M14 = system: M14
ACHN = system: ACHN
NCI-H226 = system: NCI-H226

Measured: GI50

COc1cc(/C=C2\N=C(c3ccccc3)N(c3nc4ccc(Sc5ccccc5)cc4[nH]3)C2=O)cc(OC)c1OC
inactive: MOLT-4 26.8 µM | SF-295 23.6 µM | SK-MEL-5 13.2 µM | RXF 393 22.1 µM | T47D 17.9 µM | SK-MEL-28 24 µM | OVCAR-5 33.7 µM | SK-OV-3 30.1 µM | K562 13.2 µM | SNB-75 17.4 µM | MCF7 17.8 µM | A549 34.3 µM | NCI-H23 27 µM | UO-31 34.4 µM | RPMI-8226 20.1 µM | M14 19.3 µM | ACHN 22.9 µM

COc1cc(/C=C2\N=C(c3ccccc3)N(c3cc4cc(Sc5ccccc5)ccc4[nH]3)C2=O)cc(OC)c1OC
inactive: MOLT-4 10.1 µM | SF-295 20.7 µM | SK-MEL-5 10.6 µM | RXF 393 10.1 µM | T47D 8.17 µM | SK-MEL-28 12.9 µM | OVCAR-5 25.9 µM | SK-OV-3 21.6 µM | K562 4.25 µM | SNB-75 12.7 µM | MCF7 11.5 µM | A549 19.5 µM | NCI-H226 12.2 µM | NCI-H23 25.5 µM | UO-31 14.3 µM | M14 11.4 µM | ACHN 18.4 µM

CC(=O)c1cc(S(=O)(=O)c2ccc(O)c(C(C)=O)c2)ccc1O
inactive: MOLT-4 25.4 µM | SF-295 36.5 µM | SK-MEL-5 > 100 µM | RXF 393 71.4 µM | T47D 51.8 µM | SK-MEL-28 38.7 µM | OVCAR-5 > 100 µM | SK-OV-3 66.7 µM | K562 79.4 µM | MCF7 67.6 µM | A549 49.4 µM | NCI-H226 > 100 µM | NCI-H23 58.1 µM | UO-31 28.4 µM | RPMI-8226 44.4 µM | M14 67.9 µM | ACHN 91 µM

CCCCCC(C)SC1(C(=O)OC)CC(OC(C)=O)C(NC(C)=O)C([C@H](OC(C)=O)[C@@H](COC(C)=O)OC(C)=O)O1 (some centres not stated)
inactive: MOLT-4 27.3 µM | SF-295 > 100 µM | SK-MEL-5 91.2 µM | RXF 393 88.1 µM | T47D 45.6 µM | SK-MEL-28 > 100 µM | OVCAR-5 > 100 µM | K562 92.9 µM | SNB-75 > 100 µM | MCF7 43.7 µM | A549 21.2 µM | NCI-H226 40.6 µM | NCI-H23 > 100 µM | UO-31 38.5 µM | RPMI-8226 33.7 µM | M14 71 µM | ACHN > 100 µM

O=C1CC(NC(=O)C(F)(F)F)c2c(Br)sc(N3CCC(c4ccccc4)CC3)c21 (configuration not stated)
inactive: MOLT-4 4.68 µM | SF-295 4.48 µM | SK-MEL-5 6.03 µM | RXF 393 17 µM | T47D 4.45 µM | OVCAR-5 > 100 µM | SK-OV-3 64 µM | K562 5.27 µM | SNB-75 69.3 µM | MCF7 18.7 µM | A549 32.8 µM | NCI-H226 28.4 µM | NCI-H23 6.7 µM | UO-31 8.77 µM | M14 > 100 µM | ACHN 28.1 µM

COc1ccccc1C1(c2c(OC(C)C)c(=O)c2=O)SCCCS1
inactive: MOLT-4 > 100 µM | SF-295 > 100 µM | SK-MEL-5 > 100 µM | RXF 393 > 100 µM | T47D > 100 µM | SK-MEL-28 87.1 µM | OVCAR-5 > 100 µM | SK-OV-3 > 100 µM | SNB-75 90.4 µM | MCF7 > 100 µM | A549 > 100 µM | NCI-H226 > 100 µM | NCI-H23 > 100 µM | UO-31 > 100 µM | M14 > 100 µM | ACHN > 100 µM

O=[N+]([O-])c1ccc(Oc2c(Cl)cc(S(=O)(=O)N/C(=N\O)Nc3ccc(Cl)cc3)cc2Cl)c(Cl)c1
inactive: MOLT-4 10.8 µM | SF-295 17.3 µM | SK-MEL-5 16.9 µM | RXF 393 13.2 µM | T47D 13.1 µM | SK-MEL-28 21.6 µM | OVCAR-5 19.5 µM | K562 15.8 µM | MCF7 17.2 µM | A549 17.1 µM | NCI-H226 25.3 µM | NCI-H23 17.7 µM | UO-31 13.7 µM | RPMI-8226 15.2 µM | M14 16.5 µM | ACHN 15 µM

CN1CCCCC(C#N)(c2ccccc2)CC1 (configuration not stated)
inactive: MOLT-4 > 100 µM | SF-295 > 100 µM | SK-MEL-5 > 100 µM | RXF 393 > 100 µM | T47D > 100 µM | SK-MEL-28 > 100 µM | OVCAR-5 > 100 µM | SK-OV-3 > 100 µM | K562 > 100 µM | SNB-75 > 100 µM | MCF7 > 100 µM | A549 > 100 µM | NCI-H23 > 100 µM | UO-31 > 100 µM | RPMI-8226 > 100 µM | M14 > 100 µM | ACHN > 100 µM

CC(=O)c1cc2c(Br)cccc2oc1=O
inactive: MOLT-4 > 100 µM | SF-295 > 100 µM | SK-MEL-5 > 100 µM | RXF 393 > 100 µM | T47D > 100 µM | SK-MEL-28 > 100 µM | OVCAR-5 > 100 µM | K562 99.1 µM | SNB-75 > 100 µM | MCF7 > 100 µM | A549 > 100 µM | NCI-H226 > 100 µM | NCI-H23 > 100 µM | RPMI-8226 > 100 µM | M14 > 100 µM | ACHN > 100 µM

Clc1ccc(-c2ccc(-c3nnc(COc4ccc(OCc5nnc(-c6ccc(-c7ccc(Cl)cc7Cl)o6)o5)c(Cl)c4)o3)o2)c(Cl)c1
inactive: MOLT-4 28.4 µM | SF-295 > 100 µM | SK-MEL-5 > 100 µM | RXF 393 16.2 µM | T47D > 100 µM | SK-MEL-28 > 100 µM | OVCAR-5 > 100 µM | K562 > 100 µM | MCF7 > 100 µM | A549 > 100 µM | NCI-H226 > 100 µM | NCI-H23 > 100 µM | UO-31 > 100 µM | RPMI-8226 > 100 µM | M14 > 100 µM | ACHN > 100 µM

Nc1nc(-[n+]2ccc(-c3ccncc3)cc2)nc(Cl)c1Cl
inactive: MOLT-4 18.9 µM | SK-MEL-5 > 100 µM | RXF 393 16.5 µM | T47D 16.5 µM | SK-MEL-28 47 µM | OVCAR-5 > 100 µM | SK-OV-3 > 100 µM | K562 29.9 µM | MCF7 4.6 µM | A549 > 100 µM | NCI-H226 > 100 µM | NCI-H23 22.5 µM | UO-31 32.9 µM | RPMI-8226 17.2 µM | M14 > 100 µM | ACHN > 100 µM

c1ccc(C2=NN=C3C(c4ccccc4)=Nc4ccccc4N3C2)cc1
inactive: MOLT-4 3.87 µM | SK-MEL-5 14.1 µM | RXF 393 10.1 µM | T47D 36.7 µM | SK-MEL-28 34.7 µM | OVCAR-5 32.2 µM | SK-OV-3 53.1 µM | K562 13.9 µM | MCF7 20 µM | A549 30.6 µM | NCI-H226 14.9 µM | NCI-H23 47.3 µM | UO-31 7.43 µM | RPMI-8226 9.42 µM | M14 13.7 µM | ACHN 34.4 µM
